Where only a bound is given, the exact number is not on record here.

These results are taken from US20250059184A1 (priority 2021, published 2025).

One test deals with mice. The conditions noted are these: mouse, in vivo; cited from earlier work.
Test [1] relates to 5HT2A sensor. The conditions noted are these: cited from earlier work.
Test [2] has as its system 5HT2A sensor. The settings on record: cited from earlier work. The source holds these as a separate data set.
Test [3] has as its target T1, 5-HT2A (Homo sapiens, UniProt P28223). The test can be described thus: Serotonin 5-HT2A in vitro cellular IPOne agonism assay (HTRF). The settings on record: CHO-K1 cells, agonist mode. In kind it is cell-based. Also noted: host or cells: CHO-K1. Here is the method: Serotonin 5-HT2A In Vitro Cellular IPOne Agonism Assay. The 5-HT2A IPOne HTRF assay was performed at Epics Therapeutics S.A. (Belgium, FAST-0505I) using conventional methods. Briefly, CHO-K1 cells expressing human recombinant 5-HT2A receptor grown to mid-log phase in culture media without antibiotics were detached with PBS-EDTA, centrifuged, and resuspended in medium without antibiotics buffer. 20,000 cells were distributed in a 96 well plate and incubated overnight at 37° C. with 5% Co2.
For agonist testing, the medium was removed and 20 μl of assay buffer plus 20 μl of test compound or reference agonist were added in each well. The plate was incubated for 60 min. at 37° C. with 5% CO2.
(§1) After addition of the lysis buffer containing IP1-d2 and anti-IP1 cryptate detection reagents, plates were incubated 1-hour at room temperature, and fluorescence ratios were measured according to the manufacturer specification, with the HTRF kit.
(In general: Time-resolved FRET reads energy transfer from a long-lived donor to a nearby acceptor.)

In test [4] the target is T1, 5-HT2A. Kind of test: Serotonin 5-HT2A in vitro cellular IPOne antagonism assay (HTRF). In kind it is cell-based. On the set-up: host or cells: CHO-K1. The conditions noted are these: CHO-K1 cells, reference agonist α-Me-5HT; read-out: 5-HT2A IPOne Antagonist Activity. On the procedure: Serotonin 5-HT2A In Vitro Cellular IPOne Antagonism Assay. The 5-HT2A IPOne HTRF assay was performed at Epics Therapeutics S.A. (Belgium, FAST-O0505) in antagonism mode using conventional methods. Briefly, CHO-K1 cells expressing human recombinant 5-HT2A receptor grown to mid-log phase in culture media without antibiotics were detached with PBS-EDTA, centrifuged, and resuspended in medium without antibiotics buffer. 20,000 cells were distributed in a 96 well plate and incubated overnight at 37° C. with 5% Co2.
For antagonist testing, a reference agonist α-Me-5HT was added and fluorescence signal monitored for several minutes, followed by addition of 20 μl of assay buffer plus 20 μl of test compound or reference antagonist ketanserin, in each well. The plate was incubated for 60 min. at 37° C. with 5% CO2.
as §1

The target of test [5] is T1, 5-HT2A. The test can be described thus: Serotonin 5-HT2A in vitro radioligand binding competition assay ([3H]-DOI). Also noted: purchased Epics Therapeutics S.A. (Belgium) FAST-0505B. The settings on record: [3H]-DOI radiotracer, membrane extracts. Here is the method: Serotonin 5-HT2A In Vitro Radioligand Binding Competition Assay. The 5-HT2A radioligand binding competition assay was performed at Epics Therapeutics S.A. (Belgium, FAST-0505B) using conventional methods. Briefly, competition binding was performed in duplicate in the wells of a 96 well plate (Master Block, Greiner, 786201) containing binding buffer (optimized for each receptor), membrane extracts (amount of protein/well optimized for each receptor), radiotracer [^3H]-DOI (final concentration optimized for each receptor) and test compound. Nonspecific binding was determined by co-incubation with 200-fold excess of cold competitor. The samples were incubated in a final volume of 0.1 ml at a temperature and for a duration optimized for each receptor and then filtered over filter plates. Filters were washed six times with 0.5 ml of ice-cold washing buffer (optimized for each receptor) and 50 μl of Microscint 20 (Packard) were added in each well. The plates were incubated 15 min on an orbital shaker and then counted with a TopCount™ for 1 min/well.

T1 sequence (P28223 whole entry): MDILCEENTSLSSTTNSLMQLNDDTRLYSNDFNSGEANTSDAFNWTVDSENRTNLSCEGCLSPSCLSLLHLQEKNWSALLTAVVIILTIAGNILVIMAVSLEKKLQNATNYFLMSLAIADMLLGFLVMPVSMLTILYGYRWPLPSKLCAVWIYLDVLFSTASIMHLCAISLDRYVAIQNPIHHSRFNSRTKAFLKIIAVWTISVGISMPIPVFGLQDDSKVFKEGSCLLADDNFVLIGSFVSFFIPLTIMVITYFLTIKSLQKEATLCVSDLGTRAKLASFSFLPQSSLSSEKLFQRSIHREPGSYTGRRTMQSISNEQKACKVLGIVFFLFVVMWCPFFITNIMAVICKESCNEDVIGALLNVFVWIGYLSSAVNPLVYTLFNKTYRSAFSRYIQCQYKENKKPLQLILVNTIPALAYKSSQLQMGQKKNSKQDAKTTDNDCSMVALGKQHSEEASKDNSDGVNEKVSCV

Take 5-MeO-DMT [Compound 5-MeO-DMT]: the “head-twitch response (HTR)” value in the test with mice is on record as “robust, dose-dependent head-twitch response”. Besides, in the test with 5HT2A sensor [1], the “activation of the 5HT2A sensor assay in agonist mode” value (“activation of the 5HT2A sensor assay” below) is given as “activate the 5HT2A sensor assay in agonist mode”.

With 6-F-DET [Compound 6-F-DET], in the test with 5HT2A sensor [1], the “activation of the 5HT2A sensor assay” value was “do not activate the 5HT2A sensor assay in agonist mode”. Moreover, the “competition with 5-HT in the 5HT2A sensor assay in antagonist mode” value (shortened to “competition with 5-HT”) in the test on 5HT2A sensor [2] is listed as “can compete with 5HT binding to 5HT2A”.

Regarding 6-MeO-DMT [Compound 6-MeO-DMT], the “head-twitch response (HTR)” value in the test on mice is reported as “does not produce a HTR”. The “activation of the 5HT2A sensor assay” value with 5HT2A sensor [1] is “do not activate the 5HT2A sensor assay in agonist mode”. For the same compound, the “competition with 5-HT” value in the test on 5HT2A sensor [2] is “compete off 5-HT”.

For orientation: EC50 means the concentration giving half of the maximal effect. A low value points to greater potency. On to `Cc1ccn2c(CC(C)N)ncc2c1` (centres unmarked) [Compound 9, 1-(7-methylimidazo[1,5-a]pyridin-3-yl)propan-2-amine], for which the concentration giving a half-maximal response (EC50) at 5-HT2A [3] was in the range of 1000 to 10000 nM. Also, the IC50 on 5-HT2A [4] was over 10000 nM; at 5-HT2A [5], 1000 to 10000 nM.

On 5-HT2A [3], `c1ccn2c(C3CCNC3)ncc2c1` (centres unmarked) [Compound 12, 3-(Pyrrolidin-3-yl)imidazo[1,5-a]pyridine] showed an EC50 of over 10000 nM. Further, the IC50 on 5-HT2A [4] and on 5-HT2A [5] was 1000 to 10000 nM in each case.

Compound `c1ccn2c(CC3CCCN3)ncc2c1` (centres unmarked) [Compound 13, 3-(Pyrrolidin-2-ylmethyl)imidazo[1,5-a]pyridine] returned a 50% effective concentration (EC50) on 5-HT2A [3] of over 10000 nM. The IC50 on 5-HT2A [4] and on 5-HT2A [5] was 1000 to 10000 nM in each case.

At 5-HT2A [3], `CN(C)CCc1ncc2ccccn12` [Compound 14, 2-(Imidazo[1,5-a]pyridin-3-yl)-N,N-dimethylethan-1-amine] had an EC50 of over 10000 nM. Besides, the IC50 on 5-HT2A [4] and on 5-HT2A [5] was 1000 to 10000 nM each time.

Turning to `CC(Cc1ncc2ccccn12)N(C)C` (centres unmarked) [Compound 15, 1-(imidazo [1,5-a]pyridin-3-yl)-N,N-dimethylpropan-2-amine], the EC50 on 5-HT2A [3] was over 10000 nM. Moreover, the IC50 at 5-HT2A [4] and on 5-HT2A [5] was 1000 to 10000 nM in each case.

`CC(Cc1ncc2cc(F)ccn12)N(C)C` (centres unmarked) [Compound 17, 1-(7-fluoroimidazo[1,5-a]pyridin-3-yl)-N,N-dimethylpropan-2-amine] gave an EC50 on 5-HT2A [3] of over 10000 nM. For the same compound, the IC50 at 5-HT2A [4] and at 5-HT2A [5] was 101 to 1000 nM in each case.

In turn, `CN(C)C(C)(C)Cc1ncc2ccccn12` [Compound 19, 1-(imidazo [1,5-a]pyridin-3-yl)-N,N,2-trimethylpropan-2-amine] returned a half-maximal effective concentration (EC50) at 5-HT2A [3] of over 10000 nM. In addition, the IC50 on 5-HT2A [4] and on 5-HT2A [5] was 1000 to 10000 nM in each case.

At 5-HT2A [3], `CC(C)NC(C)Cc1ncc2ccccn12` (centres unmarked) [Compound 26, 1-(imidazo [1,5-a]pyridin-3-yl)-N-isopropylpropan-2-amine] yielded a half-maximal effective concentration (EC50) of over 10000 nM. Also, the IC50 at 5-HT2A [4] and at 5-HT2A [5] was 101 to 1000 nM each time.

Consider `CC(Cc1ncc2ccccn12)N1CCCC1` (centres unmarked) [Compound 27, 3-(2-(pyrrolidin-1-yl)propyl)imidazo[1,5-a]pyridine], for which, on 5-HT2A [3], the EC50 is over 10000 nM. Further, the IC50 at 5-HT2A [4] and on 5-HT2A [5] was 1000 to 10000 nM in each case.

On to `C[C@H](Cc1ncc2ccccn12)N(C)C` [Compound 30, (R)-1-(imidazo[1,5-a]pyridin-3-yl)-N,N-dimethylpropan-2-amine], for which the 50% effective concentration (EC50) at 5-HT2A [3] was over 10000 nM. In addition, the IC50 on 5-HT2A [4] is 1000 to 10000 nM; at 5-HT2A [5] it was 101 to 1000 nM.

In turn, `CN1CCCC1Cc1ncc2ccccn12` (centres unmarked) [Compound 31, 3-((1-Methylpyrrolidin-2-yl)methyl)imidazo[1,5-a]pyridine] yielded an EC50 at 5-HT2A [3] of over 10000 nM. The IC50 is 101 to 1000 nM on 5-HT2A [4] and 1000 to 10000 nM on 5-HT2A [5].

`CN1CCC(c2ncc3ccccn23)C1` (centres unmarked) [Compound 32, 3-(1-methylpyrrolidin-3-yl)imidazo[1,5-a]pyridine] had an EC50 on 5-HT2A [3] of over 10000 nM. In addition, the results for the IC50 at 5-HT2A [4] and at 5-HT2A [5] were 1000 to 10000 nM and 101 to 1000 nM, respectively.

As for `CN(C)CCc1ncn2ccccc12` [Compound 43, 2-(imidazo [1,5-a]pyridin-1-yl)-N,N-dimethylethan-1-amine], the EC50 at 5-HT2A [3] is over 10000 nM. Further, the IC50 is 101 to 1000 nM at 5-HT2A [4] and 1000 to 10000 nM at 5-HT2A [5].

For the compound `CC(Cc1ncn2ccccc12)N(C)C` (centres unmarked) [Compound 44, 1-(imidazo [1,5-a]pyridin-1-yl)-N,N-dimethylpropan-2-amine], at 5-HT2A [3], the EC50 was over 10000 nM. In addition, the IC50 on 5-HT2A [4] fell in the range of 101 to 1000 nM; at 5-HT2A [5], 1000 to 10000 nM.

For `CN(C)CCc1c[nH]c2ccccc12` [DMT, N,N-dimethyltryptamine], the “activation of the 5HT2A sensor assay” value in the test with 5HT2A sensor [1] was “activate the 5HT2A sensor assay in agonist mode”.

On to `O=C(c1ccc(F)cc1)C1CCN(CCn2c(=O)[nH]c3ccccc3c2=O)CC1` [Ketanserin], for which, in the test on 5HT2A sensor [1], the “activation of the 5HT2A sensor assay” value was “do not activate the 5HT2A sensor assay in agonist mode”. The “competition with 5-HT” value in the test on 5HT2A sensor [2] was “can compete with 5HT binding to 5HT2A”.

Turning to BOL148, the “activation of the 5HT2A sensor assay” value with 5HT2A sensor [1] is recorded as “do not activate the 5HT2A sensor assay in agonist mode”. Also, the “competition with 5-HT” value with 5HT2A sensor [2] is listed as “can compete with 5HT binding to 5HT2A”.

As for L-MDMA, in the test on 5HT2A sensor [1], the “activation of the 5HT2A sensor assay” value is reported as “do not activate the 5HT2A sensor assay in agonist mode”.

R-MDMA: the “activation of the 5HT2A sensor assay” value in the test with 5HT2A sensor [1] is “do not activate the 5HT2A sensor assay in agonist mode”.
